Legend:
Assay type in all cases: in vivo
[1] = system: glyphosate-resistant horseweed (ERICA, Conyza canadensis); test: Field study at Church Hill, Md., percent visual control of glyphosate-resistant horseweed; conditions: 29 days after application
Description: (§1) The expected growth reduction of plant species from the combination of herbicides was calculated utilizing the Colby equation:
(§2) Expected growth reduction (E)=X+Y−(X*Y/100)
(§3) where X is % of growth reduction of a weed at a given concentration of a herbicide (or herbicide formulation) and Y is the % growth reduction of the same species and size weed at a given concentration of an independent herbicide (or herbicide formulation).
A field study was conducted at Church Hill, Md. where glyphosate-resistant horseweed (ERICA, Conyza canadensis) had been observed for 2-3 years prior to the start of this study. The study design was a split-plot with 4 replications per treatment and each plot was 3.048 M wide and 9.144 M long. The environmental conditions at the time of application were as follows: air temperature, 22° C.; wind speed, 6 kph; wind direction, south; releative humidity, 85%; cloud cover, 80%; target foliage moisture, none; soil moisture, moist; soil temperature at 5 cm depth, 21° C. The treatments were applied using a backpack CO2 sprayer, with six XR8003 flat fan nozzles spaced 46 cm apart (boom length: 2.76 M) and held 40 cm above the plant canopy. The sprayer was operated at 103 kPa and 4.8 kilometers per hour to deliver 187 L of water per hectare. At the time of applications the glyphosate-resistant horseweed were 30-38 cm tall and there were between 10 and 20 plants per square meter (m^2). The percent visual control of glyphosate-resistant horseweed was rated over the entire plot (27.87 m^2) 29 days after application. In each plot between 278 and 557 glyphosate-resistant horseweed plants were rated, collectively, for percent visual control.

[2] = system: glyphosate-resistant Conyza canadensis (ERICA); test: Greenhouse foliar application, visual herbicidal activity on glyphosate-resistant ERICA; conditions: 14 to 21 days after application
From the text: (§4) 2,4-D (dimethylamine salt), dichlorprop (potassium salt) and Glyphomax XRT® herbicide (isopropylamine salt) alone and in combinations were applied to the foliage of rapidly growing plant material utilizing a track sprayer calibrated to deliver an application volume of 187 L/ha. Treated plant material was maintained in a greenhouse that provided a 16-hr photoperiod, supplemented with metal halide-generated light, set to provide a minimum of 500 μmolm^−2s^−1. The greenhouse was maintained at a temperature of 26 to 28° C. and a relative humidity of 50 to 70%. Assessment of herbicidal activity was performed visually 14 to 21 days after application.
as §1, §2, §3

[3] = system: Canada thistle (Cirsium arvense; CIRAR); test: Greenhouse foliar application, visual herbicidal activity on CIRAR; conditions: 14 to 21 days after application
From the text: as §4, §1, §2, §3

[4] = system: prickly sida (Sida spinosa; SIDSP); test: Greenhouse foliar application, visual herbicidal activity on SIDSP; conditions: 2,4-D 140 g ae/ha alone, 14 to 21 days after application
From the text: as §4, §1, §2, §3

[5] = system: velvetleaf (Abutilon theophrasti; ABUTH); test: Greenhouse foliar application, visual herbicidal activity on ABUTH; conditions: 14 to 21 days after application
From the text: as §4, §1, §2, §3

[6] = system: ivyleaf morning glory (Ipomoea hederacea; IPOHE); test: Greenhouse foliar application, visual herbicidal activity on IPOHE; conditions: 14 to 21 days after application
From the text: as §4, §1, §2, §3

[7] = system: glyphosate-susceptible Conyza canadensis (ERICA); test: Greenhouse foliar application, visual herbicidal activity on glyphosate-susceptible ERICA; conditions: 14 to 21 days after application
From the text: as §4, §1, §2, §3

[8] = system: hemp sesbania (Sesbania exaltata; SEBEX); test: Greenhouse foliar application, visual herbicidal activity on SEBEX; conditions: 14 to 21 days after application
From the text: as §4, §1, §2, §3

[9] = system: common ragweed (Ambrosia artemesifolia; AMBEL); test: Greenhouse foliar application, visual herbicidal activity on AMBEL; conditions: 14 to 21 days after application
From the text: as §4, §1, §2, §3

[10] = system: spiderwort (Commelina benghalensis; COMBE); test: Greenhouse foliar application, visual herbicidal activity on COMBE; conditions: 14 to 21 days after application
From the text: as §4, §1, §2, §3

[11] = system: common waterhemp (Amaranthus rudis; AMATA); test: Greenhouse foliar application, visual herbicidal activity on AMATA; conditions: 14 to 21 days after application
From the text: as §4, §1, §2, §3

[12] = system: field bindweed (Polygonum convolvulus; POLCO); test: Greenhouse foliar application, visual herbicidal activity on POLCO; conditions: 14 to 21 days after application
From the text: as §4, §1, §2, §3

For O=C(O)COc1ccc(Cl)cc1Cl [2,4-D, 2,4-dichlorophenoxy acetic acid], the “Actual Injury (% growth reduction)” value ([1]; 2,4-D 280 g ae/ha alone) was 12.5 % growth reduction, the “Actual Injury (% growth reduction)” value ([1]; 2,4-D 560 g ae/ha alone) was 23.0 % growth reduction and the “Actual Injury (% growth reduction)” value ([1]; 2,4-D 1120 g ae/ha alone) was 36.3 % growth reduction. For the same compound, the “Actual Injury (% growth reduction)” value ([2]; 2,4-D 70 g ae/ha alone) was 38 % growth reduction, the “Actual Injury (% growth reduction)” value ([3]; 2,4-D 280 g ae/ha alone) was 38 % growth reduction and the “Actual Injury (% growth reduction)” value [4] was 17 % growth reduction. For the same compound, the “Actual Injury (% growth reduction)” value ([5]; 2,4-D 280 g ae/ha alone) was 28 % growth reduction, the “Actual Injury (% growth reduction)” value ([6]; 2,4-D 70 g ae/ha alone) was 17 % growth reduction and the “Actual Injury (% growth reduction)” value ([7]; 2,4-D 35 g ae/ha alone) was 47 % growth reduction. The “Actual Injury (% growth reduction)” value ([8]; 2,4-D 280 g ae/ha alone) was 37 % growth reduction, the “Actual Injury (% growth reduction)” value ([9]; 2,4-D 140 g ae/ha alone) was 61 % growth reduction and the “Actual Injury (% growth reduction)” value ([10]; 2,4-D 140 g ae/ha alone) was 48 % growth reduction. For the same compound, the “Actual Injury (% growth reduction)” value ([11]; 2,4-D 280 g ae/ha alone) was 53 % growth reduction and the “Actual Injury (% growth reduction)” value ([12]; 2,4-D 280 g ae/ha alone) was 32 % growth reduction.
CC(Oc1ccc(Cl)cc1Cl)C(=O)O (stereo not drawn) [Dichlorprop, 2,4-dichlorophenoxy propionic acid] was tested, and the “Actual Injury (% growth reduction)” value ([2]; Dichlorprop 210 g ae/ha alone) was 43 % growth reduction, the “Actual Injury (% growth reduction)” value ([3]; Dichlorprop 70 g ae/ha alone) was 48 % growth reduction and the “Actual Injury (% growth reduction)” value ([5]; Dichlorprop 70 g ae/ha alone) was 33 % growth reduction. The “Actual Injury (% growth reduction)” value ([6]; Dichlorprop 70 g ae/ha alone) was 68 % growth reduction, the “Actual Injury (% growth reduction)” value ([7]; Dichlorprop 210 g ae/ha alone) was 43 % growth reduction and the “Actual Injury (% growth reduction)” value ([8]; Dichlorprop 140 g ae/ha alone) was 38 % growth reduction. The “Actual Injury (% growth reduction)” value ([9]; Dichlorprop 280 g ae/ha alone) was 58 % growth reduction, the “Actual Injury (% growth reduction)” value ([10]; Dichlorprop 70 g ae/ha alone) was 80 % growth reduction and the “Actual Injury (% growth reduction)” value ([11]; Dichlorprop 280 g ae/ha alone) was 48 % growth reduction. The “Actual Injury (% growth reduction)” value ([12]; Dichlorprop 140 g ae/ha alone) was 38 % growth reduction.
